From patent US11524966B1 (Valo Early Discovery, Inc., priority 2017, dated 2022) come the findings set out here.

Structures are written as SMILES.

The assay addresses T1, USP28 (His-tagged USP28-FL-mammalian) (Homo sapiens, UniProt Q96RU2).
T1 construct: Expression of USP28 (1-1077)-TEV-6*His (pTT5 vector); made in house; host or cells: Expi293f cells (pTT5 vector)
T1 sequence (Q96RU2 1-1077): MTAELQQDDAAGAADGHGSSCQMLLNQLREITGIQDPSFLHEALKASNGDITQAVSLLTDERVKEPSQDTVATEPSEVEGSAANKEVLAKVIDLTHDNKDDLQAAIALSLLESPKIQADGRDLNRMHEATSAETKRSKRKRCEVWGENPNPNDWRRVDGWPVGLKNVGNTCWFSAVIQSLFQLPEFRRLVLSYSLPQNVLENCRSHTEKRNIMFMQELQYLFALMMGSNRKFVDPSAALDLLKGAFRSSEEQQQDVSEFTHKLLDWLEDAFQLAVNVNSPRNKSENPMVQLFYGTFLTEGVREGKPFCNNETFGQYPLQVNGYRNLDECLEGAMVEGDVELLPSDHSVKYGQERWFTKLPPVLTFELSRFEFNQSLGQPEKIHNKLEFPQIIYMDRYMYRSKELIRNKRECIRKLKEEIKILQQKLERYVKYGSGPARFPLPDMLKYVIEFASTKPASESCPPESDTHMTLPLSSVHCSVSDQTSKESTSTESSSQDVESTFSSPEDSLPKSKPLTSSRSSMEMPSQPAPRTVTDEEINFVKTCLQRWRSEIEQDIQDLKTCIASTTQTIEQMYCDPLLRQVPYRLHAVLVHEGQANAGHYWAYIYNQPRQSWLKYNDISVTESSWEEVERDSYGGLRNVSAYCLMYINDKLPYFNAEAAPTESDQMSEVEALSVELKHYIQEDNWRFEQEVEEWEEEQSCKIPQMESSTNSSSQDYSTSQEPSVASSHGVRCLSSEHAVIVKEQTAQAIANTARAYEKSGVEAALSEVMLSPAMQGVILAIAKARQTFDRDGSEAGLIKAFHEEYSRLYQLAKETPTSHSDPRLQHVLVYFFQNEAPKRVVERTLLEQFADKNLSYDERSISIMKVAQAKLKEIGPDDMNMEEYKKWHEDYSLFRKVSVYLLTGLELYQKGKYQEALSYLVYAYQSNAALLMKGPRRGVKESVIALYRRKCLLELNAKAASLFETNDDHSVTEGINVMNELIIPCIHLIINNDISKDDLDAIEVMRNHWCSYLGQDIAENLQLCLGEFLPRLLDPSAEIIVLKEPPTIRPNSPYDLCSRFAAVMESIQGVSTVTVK
The experiment in a line: Ubiquitin-Rhodamine 110 Assay for USP28 Activity, Example A-1(a). The note with it: Ubiquitin-Rhodamine 110 assay, Example A-1(a); read-out: USP28 A-1(a) IC50 range. It is filed as biochemical. Put shortly:
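Full-length His-tagged USP28 (1-1077, Expi293F-expressed; […]) was preincubated 30 min with compound (25 μM–1.3 nM, 10-point 3-fold) in 20 mM Tris-HCl pH 8.0, 3 mM BME, 0.03% BGG, 0.01% Triton X-100. Ub-Rh110 (25 nM) was then added for 45 min at room temperature, stopped with citric acid, and read by fluorescence (485/535 nm).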
Usually IC50 stands for the concentration at which inhibition is half-maximal. For `O=C(N[C@H]1COc2cc(N3CCNCC3)ccc2C1)c1ccc(NCc2cccc(Cl)c2)nc1` [Example 467, (R)-6-((3-chlorobenzyl)amino)-N-(7-(piperazin-1-yl)chroman-3-yl)nicotinamide], the IC50 lay within 200 to 2000 nM.

Take `CCn1ccc2cc(C(=O)N[C@H]3CCc4nc(N5C[C@H](OC)[C@@H](N)C5)ccc4C3)cnc21` [Example 353, N-[(6S)-2-[(3S,4S)-3-amino-4-methoxypyrrolidin-1-yl]-5,6,7,8-tetrahydroquinolin-6-yl]-1-ethyl-1H-pyrrolo[2,3-b]pyridine-5-carboxamide]: the IC50 lay in the range of 200 to 2000 nM.

On to `Cc1ccc2c(N)c(C(=O)N[C@H]3COc4cc(N5CC6CNC[C@](C)(C5)O6)cc(F)c4C3)sc2n1` [Example 413, 3-amino-N-[(3R)-5-fluoro-7-[(1R)-1-methyl-9-oxa-3,7-diazabicyclo[3.3.1]nonan-3-yl]-3,4-dihydro-2H-1-benzopyran-3-yl]-6-methylthieno[2,3-b]pyridine-2-carboxamide], for which the IC50 fell in the range of 1 to 50 nM.

As for `CCn1cc(Cl)c2cc(C(=O)N[C@H]3COc4c(C#N)c(N5CC6CCC(C5)N6)cc(F)c4C3)nnc21` [Example 356, 5-chloro-N-[(3R)-8-cyano-7-{3,8-diazabicyclo[3.2.1]octan-3-yl}-5-fluoro-3,4-dihydro-2H-1-benzopyran-3-yl]-7-ethyl-7H-pyrrolo[2,3-c]pyridazine-3-carboxamide], the IC50 lay within 200 to 2000 nM.

Take `Cc1ccc2c(N)c(C(=O)N[C@H]3COc4cc(N5CCC(O)CC5)ccc4C3)sc2n1` [Example 7-1, (R)-3-amino-N-(7-(4-hydroxypiperidin-1-yl)chroman-3-yl)-6-methylthieno[2,3-b]pyridine-2-carboxamide]: the IC50 was in the range of 1 to 50 nM.

In the case of `CCn1cc(Cl)c2cc(C(=O)N[C@H]3COc4c(F)c(N5CC6CCC(C5)N6)cc(F)c4C3)nnc21` [Example 355, 5-chloro-N-[(3R)-7-{3,8-diazabicyclo[3.2.1]octan-3-yl}-5,8-difluoro-3,4-dihydro-2H-1-benzopyran-3-yl]-7-ethyl-7H-pyrrolo[2,3-c]pyridazine-3-carboxamide], the IC50 lay within 50 to 200 nM.

Regarding `CC(=O)Nc1cccc(CNc2ccc(C(=O)N[C@H]3COc4cc(N5CCNCC5)ccc4C3)cn2)c1` [Example 473, (R)-6-((3-acetamidobenzyl)amino)-N-(7-(piperazin-1-yl)chroman-3-yl)nicotinamide], the IC50 is above 2000 nM.

For the molecule `Cc1ccc2c(N)c(C(=O)N[C@H]3CCc4nc(N5C[C@H](C(F)F)[C@@H](N)C5)ccc4C3)sc2n1` [Example 347, 3-amino-N-[(6S)-2-[(3R,4S)-3-amino-4-(difluoromethyl)pyrrolidin-1-yl]-5,6,7,8-tetrahydroquinolin-6-yl]-6-methylthieno[2,3-b]pyridine-2-carboxamide], the IC50 is 50 to 200 nM.

With `Cc1ccc2c(N)c(C(=O)N[C@H]3COc4cc(N5CCC[C@@](C)(O)C5)ccc4C3)sc2n1` [Example 7-3, 3-amino-N-((R)-7-((R)-3-hydroxy-3-methylpiperidin-l-yl)chroman-3-yl)-6-methylthieno[2,3-b]pyridine-2-carboxamide], the IC50 was 1 to 50 nM.

Take `Cc1ccc2c(N)c(C(=O)N[C@H]3COc4cc(N5C[C@H](N)[C@@H](F)C5)ccc4C3)sc2n1` [Example 3-7, 3-amino-N-((R)-7-((3S,4S)-3-amino-4-fluoropyrrolidin-1-yl)chroman-3-yl)-6-methylthieno[2,3-b]pyridine-2-carboxamide]: the IC50 fell in the range of 1 to 50 nM.

For `COC[C@H]1CN(c2ccc3c(n2)OC[C@H](NC(=O)c2sc4nc(C)cc(C)c4c2N)C3)C[C@H]1N` [Example 349, 3-amino-N-[(3R)-7-[(3S,4S)-3-amino-4-(methoxymethyl)pyrrolidin-1-yl]-2H,3H,4H-pyrano[2,3-b]pyridin-3-yl]-4,6-dimethylthieno[2,3-b]pyridine-2-carboxamide], the IC50 is 50 to 200 nM.

On to `Cc1cnc2c(N)c(C(=O)N[C@H]3CCc4cc(N5CC(C(=O)O)C5)ccc4C3)sc2n1` [Example 6-4, (S)-1-(6-(7-amino-3-methylthieno[2,3-b]pyrazine-6-carboxamido)-5,6,7,8-tetrahydronaphthalen-2-yl)azetidine-3-carboxylic acid], for which the IC50 fell in the range of 200 to 2000 nM.

In the case of `Cc1ccn2ncc(C(=O)N[C@H]3COc4cc(N5CCNCC5)ccc4C3)c2c1` [Example 465, (R)-5-methyl-N-(7-(piperazin-1-yl)chroman-3-yl)pyrazolo[1,5-a]pyridine-3-carboxamide], the IC50 is above 2000 nM.

Consider `Cc1ccc2c(N)c(C(=O)N[C@H]3COc4cc(N5CC6CNC[C@@](C)(C5)O6)cc(F)c4C3)sc2n1` [Example 414, 3-amino-N-[(3R)-5-fluoro-7-[(1S)-1-methyl-9-oxa-3,7-diazabicyclo[3.3.1]nonan-3-yl]-3,4-dihydro-2H-1-benzopyran-3-yl]-6-methylthieno[2,3-b]pyridine-2-carboxamide], for which the IC50 fell in the range of 50 to 200 nM.

Turning to `Cc1ccc2c(N)c(C(=O)N[C@H]3COc4cc(N5CCN[C@H](C(F)(F)F)C5)ccc4C3)sc2n1` [Example 3-12, 3-amino-6-methyl-N-((R)-7-((S)-3-(trifluoromethyl)piperazin-1-yl)chroman-3-yl)thieno[2,3-b]pyridine-2-carboxamide], the IC50 is 50 to 200 nM.

For `Cc1ccc2c(N)c(C(=O)N[C@H]3COc4cc(N5C[C@H](OC(F)(F)F)[C@@H](N)C5)ccc4C3)sc2n1` (single isomer, unassigned) [Example 3-10], the IC50 lay in the range of 50 to 200 nM.

`CN[C@H]1CN(c2ccc3c(c2)OC[C@H](NC(=O)c2sc4nc(C)ccc4c2N)C3)C[C@@H]1O` [Example 350, 3-amino-N-[(3R)-7-[(3S,4S)-3-hydroxy-4-(methylamino)pyrrolidin-1-yl]-3,4-dihydro-2H-1-benzopyran-3-yl]-6-methylthieno[2,3-b]pyridine-2-carboxamide]: the IC50 was 50 to 200 nM.

Regarding `CCc1cccc2c(C(=O)N[C@H]3COc4cc(N5CCNCC5)ccc4C3)cnn12` [Example 474, 7-ethyl-N-[(3R)-7-(piperazin-1-yl)-3,4-dihydro-2H-1-benzopyran-3-yl]pyrazolo[1,5-a]pyridine-3-carboxamide], the IC50 fell in the range of 1 to 50 nM.

In the case of `O=C(N[C@H]1COc2cc(N3CCNCC3)ccc2C1)c1ccc(NCc2ccc3c(c2)OCCO3)nc1` [Example 471, (R)-6-(((2,3-dihydrobenzo[b][1,4]dioxin-6-yl)methyl)amino)-N-(7-(piperazin-1-yl)chroman-3-yl)nicotinamide], the IC50 lay in the range of 200 to 2000 nM.

On to `Cc1ccc2c(N)c(C(=O)N[C@H]3COc4cc(N5CCC[C@](C)(O)C5)ccc4C3)sc2n1` [Example 7-2], for which the IC50 lay within 1 to 50 nM.

Take `Cc1ccc2c(N)c(C(=O)N[C@@H]3CCc4cc(N5CC6CNCC(C5)O6)ccc4C3)sc2n1` [Example 451, N-((2R)-6-(9-oxa-3,7-diazabicyclo[3.3.1]nonan-3-yl)-1,2,3,4-tetrahydronaphthalen-2-yl)-3-amino-6-methylthieno[2,3-b]pyridine-2-carboxamide]: the IC50 is 50 to 200 nM.

In the case of `Cc1ccc2c(N)c(C(=O)N[C@H]3CCc4nc(N5C[C@H](N)[C@@H](C(F)(F)F)C5)ccc4C3)sc2n1` [Example 363, 3-amino-N-[(6S)-2-[(3R,4S)-3-amino-4-(trifluoromethyl)pyrrolidin-1-yl]-5,6,7,8-tetrahydroquinolin-6-yl]-6-methylthieno[2,3-b]pyridine-2-carboxamide], the IC50 lay in the range of 50 to 200 nM.
